Consider 4 molecules from article PMC11597089, “Kratom Alkaloids: A Blood–Brain Barrier Specific Membrane Permeability Assay-Guided Isolation and Cyclodextrin Complexation Study” (Molecules, 2024).

Holding throughout (type): physicochemical
Series [1] in a line: ACE complex stability, MePYR-β-CD. To be noted: mono-6^A-(N-methyl-pyrrolidine)-β-CD, positively charged, 30 mM phosphate buffer pH 7.4, 25 °C. The procedure:
(§1) To investigate the CD complexation behavior of the four kratom alkaloids, we aimed to develop an ACE method for a systematic comparative study. […] To ensure sufficient buffer capacity and to avoid excessive current and Joule heat generation, the buffer concentration was set to 30 mM, and the applied voltage was 15 kV.
(§2) The ACE experiments were performed by using Agilent 7100 and HP^3DCE instruments (Agilent Technologies, Waldbronn, Germany). Untreated fused silica capillaries (total length of 48.5 cm, effective length of 40 cm, inner diameter of 50 μm) were purchased from Agilent Technologies. The new capillaries were conditioned with a 1 M NaOH wash for 1 h, followed by a 30 min wash each with 0.1 M NaOH and purified water. Prior to all runs, the capillary was preconditioned by rinsing with background electrolyte for 3 min. During the measurements, 30 mM phosphate buffer at pH 7.4 (30 mM Na2HPO4-NaOH) was used. The background electrolyte contained CDs at various concentrations. Stock solutions of the studied kratom alkaloids (mitragynine, paynantheine, speciogynine, speciociliatine) were prepared separately in methanol (1 mg/mL), and, right before the measurements, appropriate dilutions with purified water were used to prepare the sample solutions, applying 0.1% DMSO as the electroosmotic flow (EOF) marker. The samples were injected hydrodynamically at 40 mbar for 3 s. The positive polarity voltage was set to 15 kV, and the capillary was set to 25 °C. The electropherograms were recorded at four wavelengths (200 nm, 210 nm, 215 nm, and 220 nm), and the data were evaluated at 215 nm. In each case, three parallel measurements were performed. The measurements were evaluated using Origin and CEval software (v. 0.6i3).
(§3) In order to determine the complex stability constants that characterized the strength of the complexes, the first step was to determine the effective mobility of the analyte at specific CD concentrations. Triangular peaks caused by electromigration dispersion are often observed in ACE measurements.
(§4) Assuming a 1:1 complexation ratio and that the equilibrium CD concentration is almost equal to the total CD concentration, a relationship between the effective mobility relative to the EOF and the complex stability constant can be described by Function (4) (4) μeff=μA+μACDKstabCD/1+KstabCD where µeff is the effective mobility of the analyte, µA and µACD are the free and complexed analyte mobilities, [CD] is the concentration of the selector, and Kstab is the complex stability constant.
(§5) In order to calculate the exact, apparent, averaged complex stability constant values, viscosity correction and ionic strength correction were used.

Series [2] can be described thus: ACE complex stability, PYR-β-CD. To be noted: 6-monodeoxy-6-pyrrolidine-β-CD, positively charged, 30 mM phosphate buffer pH 7.4, 25 °C. As for the experimental part:
as §1, §2, §3, §4, §5

Series [3] can be described thus: ACE complex stability, CM-α-CD. To be noted: carboxymethylated-α-CD DS~3.5, 30 mM phosphate buffer pH 7.4, 25 °C. As for the experimental part:
as §1, §2
(§6) In order to determine the complex stability constants that characterized the strength of the complexes, the first step was to determine the effective mobility of the analyte at specific CD concentrations. Triangular peaks caused by electromigration dispersion are often observed in ACE measurements. […]

Series [4] can be described thus: ACE complex stability, DIME-β-CD. As to conditions: dimethylated-β-CD DS~14, 30 mM phosphate buffer pH 7.4, 25 °C. The procedure:
as §1, §2, §6

Series [5] in a line: ACE complex stability, Phos-β-CD. To be noted: phosphated-β-CD DS~2-6, 30 mM phosphate buffer pH 7.4, 25 °C. As for the experimental part:
as §1, §2, §3, §4, §5

Series [6] can be described thus: ACE complex stability, HPA-β-CD. As to conditions: mono-6^A-(3-hydroxy)propylamino-β-CD, positively charged, 30 mM phosphate buffer pH 7.4, 25 °C. As for the experimental part:
as §1, §2, §3, §4, §5

A short description of series [7]: ACE complex stability, α-CD. To be noted: 30 mM phosphate buffer pH 7.4, 25 °C, 15 kV, 215 nm. As for the experimental part:
as §1, §2, §3, §4, §5

Series [8] can be described thus: ACE complex stability, HDMS-β-CD. As to conditions: heptakis-(2,3-O-dimethyl, 6-O-sulfo)-β-CD, 30 mM phosphate buffer pH 7.4, 25 °C. The procedure:
as §1, §2, §3, §4, §5

Series [9] is described as follows: ACE complex stability, CE-β-CD. To be noted: carboxyethylated-β-CD DS~3, 30 mM phosphate buffer pH 7.4, 25 °C. As for the experimental part: as §1, §2, §3, §4, §5
Series [10] can be described thus: ACE complex stability, RAME-β-CD. As to conditions: randomly methylated-β-CD DS~12, 30 mM phosphate buffer pH 7.4, 25 °C. As for the experimental part: as §1, §2, §3, §4, §5

Where only a bound is given, the exact number is not on record here.

For `C=C[C@H]1CN2CCc3c([nH]c4cccc(OC)c34)[C@@H]2C[C@@H]1/C(=C\OC)C(=O)OC` [Paynantheine, paynantheine], the “complex stability constant (Kstab) with MePYR-β-CD” value in [1] was below 10 M⁻¹. Moreover, the “complex stability constant (Kstab) with PYR-β-CD” value in series [2] is below 10 M⁻¹. For the same molecule, the “complex stability constant (Kstab) with CM-α-CD” value in [3] was 175 ± 12 M⁻¹. Besides, the “complex stability constant (Kstab) with DIME-β-CD” value in series [4] turned out to be 325 ± 30 M⁻¹. In addition, the “complex stability constant (Kstab) with Phos-β-CD” value in [5] stood at 335 ± 30 M⁻¹. Besides, the “complex stability constant (Kstab) with HPA-β-CD” value in series [6] was below 10 M⁻¹. Besides, the “complex stability constant (Kstab) with α-CD” value in series [7] came out at 20 ± 2 M⁻¹. Also, the “complex stability constant (Kstab) with HDMS-β-CD” value in series [8] was determined as 135 ± 14 M⁻¹. Moreover, the “complex stability constant (Kstab) with CE-β-CD” value in series [9] is 625 ± 40 M⁻¹. In series [10], the “complex stability constant (Kstab) with RAME-β-CD” value came out at 170 ± 30 M⁻¹.
`CC[C@@H]1CN2CCc3c([nH]c4cccc(OC)c34)[C@H]2C[C@@H]1/C(=C\OC)C(=O)OC` [Speciociliatine, speciociliatine]: in series [1], the “complex stability constant (Kstab) with MePYR-β-CD” value was below 10 M⁻¹. Further, in series [2], the “complex stability constant (Kstab) with PYR-β-CD” value was below 10 M⁻¹. Also, the “complex stability constant (Kstab) with DIME-β-CD” value in series [4] was 100 ± 6 M⁻¹. Also, the “complex stability constant (Kstab) with Phos-β-CD” value in series [5] was 215 ± 15 M⁻¹. In addition, in series [6], the “complex stability constant (Kstab) with HPA-β-CD” value was below 10 M⁻¹. In addition, the “complex stability constant (Kstab) with α-CD” value in series [7] amounted to 22 ± 3 M⁻¹. In series [8], the “complex stability constant (Kstab) with HDMS-β-CD” value came to 105 ± 12 M⁻¹. In addition, in series [9], the “complex stability constant (Kstab) with CE-β-CD” value stood at 160 ± 10 M⁻¹. The “complex stability constant (Kstab) with RAME-β-CD” value in [10] came out at 20 ± 2 M⁻¹.
For the molecule `CC[C@H]1CN2CCc3c([nH]c4cccc(OC)c34)[C@@H]2C[C@@H]1/C(=C\OC)C(=O)OC` [Speciogynine, speciogynine], the “complex stability constant (Kstab) with MePYR-β-CD” value in series [1] was below 10 M⁻¹. In addition, the “complex stability constant (Kstab) with PYR-β-CD” value in [2] is below 10 M⁻¹. The “complex stability constant (Kstab) with CM-α-CD” value in [3] was determined as 135 ± 12 M⁻¹. In addition, in [5], the “complex stability constant (Kstab) with Phos-β-CD” value is 420 ± 30 M⁻¹. Further, the “complex stability constant (Kstab) with HPA-β-CD” value in series [6] is below 10 M⁻¹. Also, in series [7], the “complex stability constant (Kstab) with α-CD” value is 23 ± 5 M⁻¹. For the same molecule, the “complex stability constant (Kstab) with HDMS-β-CD” value in series [8] turned out to be 30 ± 3 M⁻¹. Moreover, the “complex stability constant (Kstab) with CE-β-CD” value in series [9] is 375 ± 25 M⁻¹. For the same molecule, the “complex stability constant (Kstab) with RAME-β-CD” value in [10] turned out to be 40 ± 1 M⁻¹.
With mitragynine, the “complex stability constant (Kstab) with MePYR-β-CD” value in series [1] is below 10 M⁻¹. The “complex stability constant (Kstab) with PYR-β-CD” value in series [2] is below 10 M⁻¹. Moreover, the “complex stability constant (Kstab) with CM-α-CD” value in [3] worked out at 155 ± 15 M⁻¹. In series [4], the “complex stability constant (Kstab) with DIME-β-CD” value turned out to be 150 ± 15 M⁻¹. The “complex stability constant (Kstab) with Phos-β-CD” value in series [5] worked out at 290 ± 30 M⁻¹. For the same molecule, the “complex stability constant (Kstab) with HPA-β-CD” value in series [6] is below 10 M⁻¹. Besides, the “complex stability constant (Kstab) with α-CD” value in series [7] was found to be 25 ± 2 M⁻¹. Moreover, in series [8], the “complex stability constant (Kstab) with HDMS-β-CD” value came out at 175 ± 7 M⁻¹. Moreover, in series [9], the “complex stability constant (Kstab) with CE-β-CD” value is 210 ± 20 M⁻¹. Also, the “complex stability constant (Kstab) with RAME-β-CD” value in series [10] was 95 ± 9 M⁻¹.
